# Earlier results as cited in patent US12539323B2, “Anti-psychotic composition and treatment methods” (priority 2017, dated 2026).
# System: symptoms of schizophrenia
# Conditions: pooled meta-analysis of celecoxib and aspirin, eight studies
smiles,measurement,setting,value
CC(=O)Oc1ccccc1C(=O)O [aspirin],Effect on negative symptoms of schizophrenia,,no benefit
same,"Hedges' g, positive symptoms",,−0.189
same,"Hedges' g, total symptoms",trend level,−0.236
